Values quoted from earlier work, collected in patent US20240408173A1, “SILK FIBROIN-CONTAINING COMPOSITION AND METHODS OF USE THEREOF” (Georgetown University, priority 2017, published 2024).

FC(F)(F)C(F)(F)C(F)(F)C(F)(F)C(F)(F)C(F)(F)C(F)(F)C(F)(F)Br [PFC, perfluorooctylbromide]
Water solubility: No
